The values that follow come from PubChem BioAssay (NCI).

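Cultured in 96-well plates, cells were exposed to test compound for 48 hours across five concentrations. GI50 = concentration required for 50% inhibition of growth. TGI marks complete inhibition of growth.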 Where a SMILES comes first, the peptide text is derived from it. Bridges are numbered along the chain shown (N, C = ends). [ ]: non-standard residue; d: D form. The star is where a group is joined. PhAc = O=C(Cc1ccccc1)* A value given as a limit tells only on which side of the number the result lay.

Among the test systems are EKVX NSCLC; 786-0 renal; SF-295 CNS; SF-539 CNS; T-47D breast; OVCAR-8 ovarian; COLO 205 colon; RXF 393 renal; M14 melanoma; MOLT-4 leukemia; CCRF-CEM leukemia; HCC-2998 colon; SNB-19 CNS; UO-31 renal; HOP-62 NSCLC; MDA-MB-231 breast; BT-549 breast.
What all share (experiment): NCI tumour cell line growth inhibition, 48 h

On to `O=C1Oc2ccccc2C(=O)/C1=C/N1C(=O)/C(=C/c2ccc3c(c2)OCO3)SC1=S`, for which the TGI is over 100 µM with EKVX NSCLC; over 54.8 µM with 786-0 renal; 35 µM with SF-295 CNS; 26.7 µM with SF-539 CNS; 31 µM in the test with T-47D breast; 40.9 µM with OVCAR-8 ovarian. Moreover, the TGI in the test on COLO 205 colon was 36.6 µM; with RXF 393 renal it was 40.2 µM; in the test with M14 melanoma, 31.9 µM; in the test on MOLT-4 leukemia it was 35.9 µM; in the test on CCRF-CEM leukemia, over 61.3 µM; with HCC-2998 colon, 28.9 µM. Moreover, the TGI in the test on SNB-19 CNS came to 37.1 µM; in the test on UO-31 renal, 22.9 µM; with HOP-62 NSCLC it was 24.4 µM; in the test on MDA-MB-231 breast, 44 µM. The GI50 is 12.6 µM in the test with SNB-19 CNS and 7.14 µM with UO-31 renal.

Regarding `O=C(Cc1ccccc1)N[C@@H]1COC(=O)[C@@H]2CCCN2C(=O)[C@@H]2CCCN2C1=O` (PhAc-[dS]-Pro-Pro; ester 1-C), the TGI in the test on EKVX NSCLC, in the test with 786-0 renal, with SF-295 CNS, in the test with SF-539 CNS, in the test with T-47D breast and with OVCAR-8 ovarian was over 100 µM each time. Moreover, the TGI in the test with COLO 205 colon, in the test on RXF 393 renal, in the test on M14 melanoma, with MOLT-4 leukemia, with CCRF-CEM leukemia and with HCC-2998 colon was over 100 µM each time. Also, the TGI in the test on SNB-19 CNS, with HOP-62 NSCLC and in the test on MDA-MB-231 breast was over 100 µM in each case.

Regarding `O=C1CCCC2=C1CC1=C(CCCC1=O)N2c1ccccc1C(=O)O`, the TGI in the test on EKVX NSCLC, with 786-0 renal, in the test with SF-539 CNS, in the test with BT-549 breast, with OVCAR-8 ovarian and in the test on RXF 393 renal was over 100 µM throughout. Also, the TGI in the test with M14 melanoma, with MOLT-4 leukemia, with CCRF-CEM leukemia, in the test on HCC-2998 colon, in the test on SNB-19 CNS and with UO-31 renal was over 100 µM each time.

On to `Cc1ccc(/C=N/Nc2nc3ccccc3s2)s1`, for which the TGI with EKVX NSCLC, in the test with 786-0 renal, in the test with SF-295 CNS, in the test with SF-539 CNS, in the test with T-47D breast and in the test on OVCAR-8 ovarian was over 100 µM throughout. In addition, the TGI in the test on COLO 205 colon, in the test with RXF 393 renal, in the test with M14 melanoma, in the test on MOLT-4 leukemia, with CCRF-CEM leukemia and with HCC-2998 colon was over 100 µM throughout. Moreover, the TGI with SNB-19 CNS was over 100 µM; with UO-31 renal, over 100 µM; with HOP-62 NSCLC, 89.4 µM; in the test with MDA-MB-231 breast, 89.8 µM.

As to `CC1=C(C)CC(C#N)(C#N)C(C#N)(C#N)C1`, the TGI with EKVX NSCLC is over 10 µM; in the test on 786-0 renal, over 8.08 µM; with SF-295 CNS, over 10 µM; with SF-539 CNS it was over 10 µM; with T-47D breast it was 9.9 µM; in the test with OVCAR-8 ovarian, over 9.66 µM. The TGI is over 6.8 µM in the test with COLO 205 colon; over 6.09 µM with RXF 393 renal; over 10 µM in the test with M14 melanoma; over 6.09 µM in the test on MOLT-4 leukemia; over 10 µM with CCRF-CEM leukemia; over 10 µM with HCC-2998 colon. The TGI in the test on SNB-19 CNS, in the test with UO-31 renal, in the test with HOP-62 NSCLC and with MDA-MB-231 breast was over 10 µM each time.

In the case of `CC(C)(C)OC(=O)[C@@H]1CCC(=S)N1Cc1ccccc1`, the TGI with EKVX NSCLC, in the test on 786-0 renal, in the test on SF-295 CNS, in the test with SF-539 CNS, with BT-549 breast and in the test with OVCAR-8 ovarian was over 100 µM throughout. For the same molecule, the TGI with COLO 205 colon, in the test on RXF 393 renal, with M14 melanoma, in the test with MOLT-4 leukemia, with CCRF-CEM leukemia and in the test on HCC-2998 colon was over 100 µM in each case. The TGI in the test with SNB-19 CNS, in the test on UO-31 renal and in the test on MDA-MB-231 breast was over 100 µM in each case.

Take `C=C[C@]1(O)CCC[C@]2(C)C(=O)CCC12C` (stereo not given in full): the TGI with EKVX NSCLC, with 786-0 renal, with SF-295 CNS, in the test on SF-539 CNS, with T-47D breast and in the test on OVCAR-8 ovarian was over 100 µM in each case. In addition, the TGI with COLO 205 colon, with RXF 393 renal, in the test with M14 melanoma, in the test on MOLT-4 leukemia, in the test on HCC-2998 colon and in the test on SNB-19 CNS was over 100 µM in each case. Moreover, the TGI with UO-31 renal, in the test on HOP-62 NSCLC and with MDA-MB-231 breast was over 100 µM throughout.

As for `CCOC(=O)C(NC(=O)C(CCCCNP(=O)(OCC)OCC)NC(=O)C(C)NC(C)=O)C(C)C` (stereo not given), the TGI in the test with EKVX NSCLC, in the test on 786-0 renal, in the test on SF-295 CNS, with SF-539 CNS, in the test with BT-549 breast and with OVCAR-8 ovarian was over 100 µM in each case. For the same molecule, the TGI with COLO 205 colon, in the test on RXF 393 renal, with M14 melanoma, in the test on MOLT-4 leukemia, in the test with CCRF-CEM leukemia and in the test with HCC-2998 colon was over 100 µM in each case. Further, the TGI in the test with SNB-19 CNS, in the test on UO-31 renal, in the test with HOP-62 NSCLC and in the test on MDA-MB-231 breast was over 100 µM each time.

`CCOC(=O)[C@@H]1OC(c2ccccc2)O[C@H]1C(=O)OCC`: the TGI in the test on EKVX NSCLC, in the test with 786-0 renal, with SF-295 CNS, in the test with OVCAR-8 ovarian, in the test with COLO 205 colon and with M14 melanoma was over 100 µM throughout. The TGI in the test on MOLT-4 leukemia, in the test on CCRF-CEM leukemia, in the test with SNB-19 CNS, in the test with UO-31 renal, with HOP-62 NSCLC and in the test with MDA-MB-231 breast was over 100 µM in each case.
